# Measured values published in paper PMC10184130.
# pIC50: −log10 of the molar value.
# Target: T1, human C1s (Homo sapiens, UniProt P09871)
# T1 construct: Recombinant human C1s (358–688 aa) fused with both the N-terminal IgG signal peptide; IgG signal peptide (N); His tag (C); made in house; host or cells: HEK293 cells
# T1 sequence (P09871 358-688): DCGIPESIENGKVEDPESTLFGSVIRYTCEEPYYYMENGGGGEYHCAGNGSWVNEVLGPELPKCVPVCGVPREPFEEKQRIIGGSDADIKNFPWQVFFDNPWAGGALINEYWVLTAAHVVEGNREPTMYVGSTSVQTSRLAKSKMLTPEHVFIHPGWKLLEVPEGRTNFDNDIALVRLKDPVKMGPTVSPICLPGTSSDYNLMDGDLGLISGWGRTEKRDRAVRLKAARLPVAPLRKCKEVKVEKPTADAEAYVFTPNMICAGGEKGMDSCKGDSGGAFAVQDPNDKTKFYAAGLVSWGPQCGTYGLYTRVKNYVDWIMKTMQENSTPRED
# Test: Human C1s enzyme assay
# Assay type: biochemical
# Settings: 95% confidence intervals in parentheses
# Procedure: Recombinant human C1s (358–688 aa) fused with both the N-terminal IgG signal peptide and the C-terminal His tag was expressed in HEK293 cells and purified. The assay was performed in a 384-well clear plate in a total volume of 20 μL of an assay buffer 1 [50 mmol/L Tris–HCl (pH 7.5), 150 mmol/L NaCl, 0.01% (w/v) Tween 20, and 0.01% (w/v) BSA]. Compounds were dissolved in DMSO and diluted to various concentrations. After 20 nL of compound solution was added to the plate, 10 μL of substrate solution containing a 250 μmol/L Z-Lys-SBzl peptide (Watanabe Chemical, Hiroshima, Japan) and 250 μmol/L DTNB (5,5′-dithiobis(2-nitrobenzoic acid)) (Sigma, MO, USA) was added to the plate. Then, 8 nmol/L human C1s was added to the plate and incubated at room temperature for 60 min. The absorbance at 405 nm was detected using an EnVision multilabel plate reader. […] The IC50 values were calculated using IDBS XLfit software.
smiles,measurement,value
"Cc1cc([C@H]2CN(c3cc(F)c4c(N)nncc4c3)CCN2c2cccc(F)c2)no1 [Compound (R)-8, 8-Fluoro-6-[(3R)-4-(3-fluorophenyl)-3-(5-methyl-1,2-oxazol-3-yl)piperazin-1-yl]phthalazin-1-amine]",pIC50,7.44
